Test results published in US8809352B2, “Sulfonamides as inhibitors of Bcl-2 family proteins for the treatments of cancer” (Novartis AG, priority 2009, dated 2014).

Each compound was assayed against BCL2 (Homo sapiens, UniProt P10415) (assay: Biacore SPR solution inhibition assay of BCL-2 binding to peptide derivatized sensor surfaces). Details: SPR competition; 56 nM BCL2 pre-equilibrated with compound one hour; biotinylated BAK, BAD and NOXA peptide surfaces; 25° C.
Outline: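 Solution-competition SPR at 25 °C in HEPES pH 7.4 buffer with 1.25 mM DTT and 3% DMSO: compounds (6-point threefold series, 16 μM to 0.004 nM) pre-equilibrated 1 h with 56 nM BCL2, then injected over captured biotinylated BAK, BAD and NOXA peptide surfaces. Binding levels relative to BCL2-only controls gave % inhibition.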

BCL2, sequence (P10415 whole entry): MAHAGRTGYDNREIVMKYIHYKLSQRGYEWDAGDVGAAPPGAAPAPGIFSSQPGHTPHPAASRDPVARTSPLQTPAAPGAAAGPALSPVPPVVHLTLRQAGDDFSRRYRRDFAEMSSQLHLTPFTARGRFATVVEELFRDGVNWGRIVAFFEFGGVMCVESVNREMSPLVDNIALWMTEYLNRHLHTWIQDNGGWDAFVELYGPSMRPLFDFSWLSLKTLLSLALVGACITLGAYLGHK

IC50 | Compound
30 nM | CN(C)CC[C@H](CSc1ccccc1)Nc1ccc(S(=O)(=O)Nc2ncnc3c2CCN(C2CCN(Cc4c(F)cccc4-c4ccc(Cl)cc4)CC2)C3)cc1S(=O)(=O)C(F)(F)F [Example 21, (R)-N—-(7-(1-((4′-chloro-3-fluorobiphenyl-2-yl)methyl)piperidin-4-yl)-5,6,7,8-tetrahydropyrido[3,4-d]pyrimidin-4-yl)-4-(4-(dimethylamino)-1-(phenylthio)butan-2-ylamino)-3-(trifluoromethylsulfonyl)benzenesulfonamide]
32 nM | CN(C)CC[C@H](CSc1ccccc1Cl)Nc1ccc(S(=O)(=O)Nc2ncnc3c2CCN(C2CCN(Cc4ccccc4-c4ccc(Cl)cc4)CC2)C3)cc1S(=O)(=O)C(F)(F)F [Example 40]
19 nM | CN(C)CC[C@H](CSc1ccccc1)Nc1ccc(S(=O)(=O)Nc2ncnc3c2CCN(C2CCN(Cc4ccccc4-c4ccc(Br)cc4)CC2)C3)cc1S(=O)(=O)C(F)(F)F [Example 6, (R)-N-(7-(1-((4′-bromobiphenyl-2-yl)methyl)piperidin-4-yl)-5,6,7,8-tetrahydropyrido[3,4-d]pyrimidin-4-yl)-4-(4-(dimethylamino)-1-(phenylthio)butan-2-ylamino)-3-(trifluoromethylsulfonyl)benzenesulfonamide]
27 nM | CN1CCN(CC[C@H](CSc2ccccc2F)Nc2ccc(S(=O)(=O)Nc3ncnc4c3CCN(C3CCN(Cc5ccccc5-c5ccc(Cl)cc5)CC3)C4)cc2S(=O)(=O)C(F)(F)F)CC1 [Example 56, (R)-N-(7-(1-((4′-chlorobiphenyl-2-yl)methyl)piperidin-4-yl)-5,6,7,8-tetrahydropyrido[3,4-d]pyrimidin-4-yl)-4-(1-(2-fluorophenylthio)-4-(4-methylpiperazin-1-yl)butan-2-ylamino)-3-(trifluoromethylsulfonyl)benzenesulfonamide]
306 nM | COC1(Cc2ccccc2Br)CCC(N2CCc3c(ncnc3NS(=O)(=O)c3ccc(N[C@H](CCN(C)C)CSc4ccccc4)c(S(=O)(=O)C(F)(F)F)c3)C2)CC1 (stereo partly drawn) [Example 61, (R)-N-(7-(4-(2-bromobenzyl)-4-methoxycyclohexyl)-5,6,7,8-tetrahydropyrido[3,4-d]pyrimidin-4-yl)-4-(4-(dimethylamino)-1-(phenylthio)butan-2-ylamino)-3-(trifluoromethylsulfonyl)benzenesulfonamide]
41 nM | CC1(C)CCC(CN2CCC(N3CCc4c(ncnc4NS(=O)(=O)c4ccc(N[C@H](CCN5CCOCC5)CSc5ccccc5)c(S(=O)(=O)C(F)(F)F)c4)C3)CC2)=C(c2ccc(Cl)cc2)C1 [Example 16, (R)-N-(7-(1-((2-(4-chlorophenol)-4,4-dimethylcyclohex-1-enyl)methyl)piperidin-4-yl)-5,6,7,8-tetrahydropyrido[3,4-d]pyrimidin-4-yl)-4-(4-morpholino-1-(phenylthio)butan-2-ylamino)-3-(trifluoromethylsulfonyl)benzenesulfonamide]
84 nM | [2H]C1(N2CCc3c(ncnc3NS(=O)(=O)c3ccc(N[C@H](CCN)CSc4ccccc4)c(S(=O)(=O)C(F)(F)F)c3)C2)CCN(Cc2cc(F)ccc2-c2ccc(Cl)cc2)CC1 [Example 79, 4-((R)-3-Amino-1-phenylsulfanylmethyl-propylamino)-N-{7-[4-deutero-1-(4′-chloro-4-fluoro-biphenyl-2-ylmethyl)-piperidin-4-yl]-5,6,7,8-tetrahydro-pyrido[3,4-d]pyrimidin-4-yl}-3-trifluoromethanesulfonyl-benzenesulfonamide]
73 nM | [2H]C1(N2CCc3c(ncnc3NS(=O)(=O)c3ccc(N[C@H](CCN(C)C(C)C)CSc4ccccc4)c(S(=O)(=O)C(F)(F)F)c3)C2)CCN(Cc2cc(F)ccc2-c2ccc(Cl)cc2)CC1 [Example 84]
206 nM | CC1CC(N2CCc3c(ncnc3NS(=O)(=O)c3ccc(N[C@H](CCN4CCOCC4)CSc4ccccc4)c(S(=O)(=O)C(F)(F)F)c3)C2)CCN1CC1=C(c2ccc(Cl)cc2)CC(C)(C)CC1 (stereo partly drawn) [Example 27, N-(7-(1-((2-(4-chlorophenyl)-4,4-dimethylcyclohex-1-enyl)methyl)-2-methylpiperidin-4-yl)-5,6,7,8-tetrahydropyrido[3,4-d]pyrimidin-4-yl)-4-((R)-4-morpholino-1-(phenylthio)butan-2-ylamino)-3-(trifluoromethylsulfonyl)benzenesulfonamide]
312 nM | [2H]C1(N2CCc3c(ncnc3NS(=O)(=O)c3ccc(N[C@H](CCN4CC5CCC(C4)O5)CSc4ccccc4)c(S(=O)(=O)C(F)(F)F)c3)C2)CCN(CC2=C(c3ccc(Cl)cc3)CC(C)(C)CC2)CC1 [Example 81, 4-((2R)-4-(8-oxa-3-azabicyclo[3.2.1]octan-3-yl)-1-(phenylthio)butan-2-ylamino)-N-(7-(1-((2-(4-chlorophenyl)-4,4-dimethylcyclohex-1-enyl)methyl)-4-deuteropiperidin-4-yl)-5,6,7,8-tetrahydropyrido[3,4-d]pyrimidin-4-yl)-3-(trifluoromethylsulfonyl)-benzenesulfonamide]
20 nM | CN(C)CC[C@H](CSc1ccccc1)Nc1ccc(S(=O)(=O)Nc2nc(C(F)(F)F)nc3c2CCN(C2CCN(Cc4ccccc4-c4ccc(Cl)cc4)CC2)C3)cc1[N+](=O)[O-] [Example 71, (R)-N-(7-(1-((4′-chlorobiphenyl-2-yl)methyl)piperidin-4-yl)-2-(trifluoromethyl)-5,6,7,8-tetrahydropyrido[3,4-d]pyrimidin-4-yl)-4-(4-(dimethylamino)-1-(phenylthio)butan-2-ylamino)-3-nitrobenzenesulfonamide]
37 nM | CN(C)CC[C@H](CSc1ccccc1)Nc1ccc(S(=O)(=O)Nc2ncnc3c2CCN(C2CCN(Cc4ccccc4-c4ccc(C(F)(F)F)cc4)CC2)C3)cc1S(=O)(=O)C(F)(F)F [Example 99, (R)-4-(4-(dimethylamino)-1-(phenylthio)butan-2-ylamino)-N-(7-(1-((4′-(trifluoromethyl)biphenyl-2-yl)-methyl)piperidin-4-yl)-5,6,7,8-tetrahydropyrido[3,4-d]pyrimidin-4-yl)-3-(trifluoromethylsulfonyl)benzenesulfonamide]
20 nM | CN(C)CC[C@H](CSc1ccccc1)Nc1ccc(S(=O)(=O)Nc2ncnc3c2CCN(C2CCN(Cc4ccccc4-c4ccc(Cl)cc4)CC2)C3)cc1S(=O)(=O)C(F)(F)F [Example 11, (R)-N-(7-(1((4′-chlorobiphenyl-2-yl)methyl)piperidin-4-yl)-5,6,7,8-tetrahydropyrido[3,4-d]pyrimidin-4-yl)-4-(4-(dimethylamino)-1-(phenylthio)butan-2-ylamino)-3-(trifluoromethylsulfonyl)benzenesulfonamide]
579 nM | CCC[C@H](CSc1ccccc1)Nc1ccc(S(=O)(=O)Nc2ncnc3c2CCN(C2CCN(CC4=C(c5ccc(Cl)cc5)CC(C)(C)CC4)CC2)C3)cc1S(=O)(=O)C(F)(F)F [Example 59, N-(7-(1-((2-(4-chlorophenyl)-4,4-dimethylcyclohex-1-enyl)methyl)piperidin-4-yl)-5,6,7,8-tetrahydropyrido[3,4-d]pyrimidin-4-yl)-4-(1-(phenylthio)pentan-2-ylamino)-3-(trifluoromethylsulfonyl)benzenesulfonamide]
